Assay results: patent US20140200144A1, “TREATMENT OF CROPS WITH A LOWER ALKYL N[…] ALTER CELL CYCLE AND WATER REGULATION” (1,4 GROUP, INC., priority 2013, published 2014)

How the values were obtained:
potato tubers [1] = settings: Beveridge et al. 1981; cited from earlier work
[2] = test system: sprouting root and tuber crops, bulb crops, ornamentals; experiment: Effect on sprouting crops; type: in vivo
[3] = test system: potato meristem transcripts; experiment: Microarray transcriptional profiling (POCI 44K oligo array) of potato meristems; type: cell-based, potato (Russet Burbank)
Description: On the day of treatment, tubers were transferred from 3° to 20° C. and were immediately washed in running tap water. After drying at room temperature in the dark, the tubers were placed into 4 L airtight containers. A beaker containing about 5 g of activated charcoal was placed in the chamber containing the control tubers prior to sealing (Control). DMN (0.15 mL liquid) was placed on cotton wool in a beaker and sealed in the treatment chamber (DMN3 days). The chambers were incubated in the dark at 20° C. for three days. At this time tubers were removed and the lateral meristems were isolated using a curette with the aid of a dissecting microscope. […] One group of DMN-treated tubers was incubated for a further two days in air (dark, 20° C.) prior to meristem isolation (DMN3 days+2).
RNA was isolated from frozen meristems by grinding to a fine powder in a mortar and pestle followed by isolation and purification using a Ribopure Kit (www.ambio.com). RNA was quantified using a BioSpec nano and quality was assessed by gel electrophoresis and visualization of ribosomal RNA. Total RNA (500 ng) was denatured in the presence of a T7 promoter primer and cDNA was synthesized using reverse transcriptase. The cDNA was used as a template for in vitro transcription by synthesis with T7RNA polymerase, which amplified target material and incorporated cyanine 3-labeled CTP. The labeled cRNA was purified using spin columns and quantified using a spectrophotometer. […] Probe generation and hybridization to the array were conducted through a contract to Gene Logic (www.genelogic.com). Twelve samples were used to probe against the POCI array, three samples from eco-dormant meristems (harvested directly from 3° C. storage), three samples from meristems isolated from tubers treated with DMN for three days in a closed container, three samples treated with water for three days in a closed container, three samples treated with DMN for three days and then exposed to air for two days. The three samples for each treatment were biological replicates.
Analysis of the microarray was conducted in two stages; total array data was examined using a linear model and the software limma, and pathway analysis was conducted by linking the potato sequences to the Arabidopsis thaliana. […] The data was corrected for background and normalized between arrays using a loess method. […] The use of limma for analysis of oligo arrays was accomplished by analyzing data from a single emission channel.
The array data was transformed to log base 2 and normalized between arrays using default parameters in GeneMathsXT software package (www.applied-maths.com). […] Pathway Studio 8.0 (www.ariadnegenomics.com) was utilized to determine metabolic changes that were associated with DMN treated for three days compared to controls.

potato tubers [4] = settings: J. Zalewsky, personal communication; cited from earlier work
potato meristems = experiment: 3H-thymidine incorporation into DNA of meristems from DMN-treated tubers; type: cell-based, potato (Russet Burbank); settings: for Thymidine incorporation (labeled thymidine taken up incorporated into DNA): meristems from tubers treated with DMN 3 days at 20° C.
Description: On the day of treatment, tubers were transferred from 3° to 20° C. and were immediately washed in running tap water. After drying at room temperature in the dark, the tubers were placed into 4 L airtight containers. A beaker containing about 5 g of activated charcoal was placed in the chamber containing the control tubers prior to sealing (Control). DMN (0.15 mL liquid) was placed on cotton wool in a beaker and sealed in the treatment chamber (DMN3 days). The chambers were incubated in the dark at 20° C. for three days. At this time tubers were removed and the lateral meristems were isolated using a curette with the aid of a dissecting microscope. Either used fresh (thymidine incorporation) or immediately frozen in liquid nitrogen and stored at −80° C., as previously described (Campbell et al., 1996). One group of DMN-treated tubers was incubated for a further two days in air (dark, 20° C.) prior to meristem isolation (DMN3 days+2). Samples were also collected from untreated non-dormant buds at day 0 immediately after removal from 3° C. storage; henceforth referred to as eco-dormant (Lang et al. 1987)
Freshly excised meristems were washed with deionized water and groups of 20 buds were incubated on 1 mL of buffer (10 mM Mes/KOH; pH 5.7) containing 0.9 μCi of ^3H-thymidine (60 μCi/μmole; American Radiolabeled Chemicals Inc., St. Louis, Mo.). The meristems were incubated on an oscillating shaker (100 rpm) at room temperature in the dark. After three hours, meristems were removed from the incubation media, washed extensively with deionized water followed by two washes with incubation buffer containing 5 mM unlabeled thymidine, blotted dry, frozen in liquid nitrogen, and stored at −80° C. To determine incorporation, the frozen meristems were homogenized in 1 mL ice-cold 10% (w/v) TCA. After standing on ice for 3-4 hours, the samples were vigorously mixed. An aliquot was removed and placed in a scintillation vial to determine total uptake. A second equal aliquot was removed and placed on a microfiber filter (GF/C; Whatman). […]

[5] = test system: potato meristem transcripts; experiment: QT-PCR analysis of potato meristem transcripts; type: cell-based, potato (Russet Burbank); settings: DMN for three days, vs control
Description: On the day of treatment, tubers were transferred from 3° to 20° C. and were immediately washed in running tap water. After drying at room temperature in the dark, the tubers were placed into 4 L airtight containers. A beaker containing about 5 g of activated charcoal was placed in the chamber containing the control tubers prior to sealing (Control). DMN (0.15 mL liquid) was placed on cotton wool in a beaker and sealed in the treatment chamber (DMN3 days). The chambers were incubated in the dark at 20° C. for three days. At this time tubers were removed and the lateral meristems were isolated using a curette with the aid of a dissecting microscope. […]
A set of transcripts was selected for further analysis to confirm the microarray data and to determine the possible cell cycle position of tubers treated with DMN. […] Therefore, primers were determined by isolating a longer DNA sequence from the DFCI-Potato Gene Index corresponding to the microarray oligonucleotide and searching that sequence for primers using the Applied Biosystems Primer Express 3.0 software (www.appliedbiosystems.com). cDNA template for QT-PCR was prepared from mRNA isolated from potato meristems treated with DMN for three days as described above. PCR reactions were run on a StepOne™ Real Time System and analyzed using Step One Software v2.0 (www.appliedbiosystems.com) to determine ΔΔCT values on a log10 scale. […]

ABA levels = settings: Campbell et al. 2010; cited from earlier work
berries = settings: freshly harvested berries; copending application; cited from earlier work
[6] = DMN three days vs three-day control

SMILES: Cc1ccc(C)c2ccccc12 [DMN, 1,4-dimethylnaphthalene]
- premature sprouting of potato tubers (potato tubers [1]): shown to prevent premature sprouting
- effect on sprouting root and tuber crops ([2]; beet, carrot, cassaca, dasheen (taro), ginger, ginseng, horseradish, parsnip, pototato, sweet potato, turnip, yam): effective
- effect on sprouting ornamentals ([2]; flowering bulbs): effective
- effect on sprouting bulb crops ([2]; garlic, leek, onion, shallot): effective
- expression of transcripts that encode cyclin or cyclin-like proteins [3, 6]: decreased expression
- transcripts assigned to water regulation and responses to salt stress [3, 6]: increased
- expression of the Cln1 homolog CYCA1 ([3]; DMN treatment): decrease
- Nucleoside diphosphate kinase (NDPK) transcript ([3]; exposure to DMN): down regulated
- turgidity and tuber fresh weight (potato tubers [4]): increase in turgidity and maintenance of tuber fresh weight
- Thymidine incorporation (labeled thymidine taken up incorporated into DNA) (potato meristems; Run 1, control 14.3 ± 2.1%): 6.7 ± 0.4%
- Thymidine incorporation (labeled thymidine taken up incorporated into DNA) (potato meristems; Run 2, control 12.5 ± 0.2%): 6.5 ± 1.0%
- reduction in thymidine incorporation into DNA (potato meristems; non-dormant tuber meristems following DMN treatment, vs control): about 50%
- transcripts for CDKB1, CYCD3, PCNA, and UTPase (G1/S-phase or early S-phase) [5]: decreased
- transcripts for KRP1, KRP2, MYC2, WRKY, and CYCA3 [5]: elevated
- ABA levels over control tissues (ABA levels): did not result in an increase in ABA levels
- hydration and shelf life of berries (berries): maintain improved hydration
